Measured values from the supplement of paper PMC11061612.

Key:
Assay in all cases: combination Emax (second highest fraction inhibited in the dose matrix, 72 h); higher = more inhibition; extreme values may be limits of the assay
[1] = system: 8505C (Thyroid Gland Carcinoma)
Outline: (§1)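 Cell lines grown in DMEM/F12 or RPMI with 10% FBS were plated in 1536-well plates and held 24 hours at 37°C, 5% CO2 before 72 hours of exposure to two-drug dose matrices, with DMSO typically at 0.2%. CellTiter-Glo 2.0 luminescence gave viability, which was converted to inhibition. Vehicle wells were set to 0 and blank wells to 1. Combination Emax is the second-highest inhibition in the matrix, and Bliss excess is the observed combination effect minus the expected EA + EB − EA·EB, where EA and EB are the single-agent effects.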

[2] = system: COR-L279 (Small Cell Lung Carcinoma)
Outline: as §1

[3] = system: CW-2 (Colorectal Carcinoma)
Outline: as §1

[4] = system: DAN-G (Pancreatic Carcinoma)
Outline: as §1

G-361 (Melanoma) = system: G-361 (Melanoma)
Outline: as §1

[5] = system: KU812 (Chronic Myelogenous Leukemia)
Outline: as §1

[6] = system: KY821 (Acute Myeloid Leukemia)
Outline: as §1

[7] = system: MN-60 (B-Lymphoblastic Leukemia)
Outline: as §1

[8] = system: MOG-G-CCM (Low Grade Glioma)
Outline: as §1

[9] = system: NCCIT (Other Solid Carcinomas)
Outline: as §1

[10] = system: NCI-H3122 (Lung Adenocarcinoma)
Outline: as §1

[11] = system: NCI-H520 (Squamous Cell Lung Carcinoma)
Outline: as §1

[12] = system: NCI-H526 (Small Cell Lung Carcinoma)
Outline: as §1

[13] = system: NCI-H929 (Plasma Cell Myeloma)
Outline: as §1

[14] = system: PC-3 (Prostate Carcinoma)
Outline: as §1

RD (Rhabdomyosarcoma) = system: RD (Rhabdomyosarcoma)
Outline: as §1

[15] = system: SNU-398 (Hepatocellular Carcinoma)
Outline: as §1

[16] = system: SU-DHL-5 (B-Cell Non-Hodgkin's Lymphoma)
Outline: as §1

[17] = system: SUP-B15 (B-Lymphoblastic Leukemia)
Outline: as §1

[18] = system: T-T (Esophageal Squamous Cell Carcinoma)
Outline: as §1

| SMILES | combination Emax [1] | combination Emax [2] | combination Emax [3] | combination Emax [4] | combination Emax (G-361 (Melanoma)) | combination Emax [5] | combination Emax [6] | combination Emax [7] | combination Emax [8] | combination Emax [9] | combination Emax [10] | combination Emax [11] | combination Emax [12] | combination Emax [13] | combination Emax [14] | combination Emax (RD (Rhabdomyosarcoma)) | combination Emax [15] | combination Emax [16] | combination Emax [17] | combination Emax [18] |
| --- | --- | --- | --- | --- | --- | --- | --- | --- | --- | --- | --- | --- | --- | --- | --- | --- | --- | --- | --- | --- |
| CN(C)CCCOc1ccc(-c2ccc3ncc4c(c3c2)n(C2CCOCC2)c(=O)n4C)cn1 [AZD0156] + O=C(c1cc(Cc2n[nH]c(=O)c3ccccc23)ccc1F)N1CCN(C(=O)C2CC2)CC1 [Olaparib] (first compound max 3 µM, partner max 3 µM) | 0.392 | 0.692 | 0.177 | 0.576 | 0.267 | 0.64 | 0.4 | 0.119 | 0.289 | 0.194 | 0.251 | 0.473 | 0.408 | 0.863 | 0.199 | 0.238 | 0.387 | 0.794 | 0.675 | 0.346 |
| CN(CCO)CC[C@H](CSc1ccccc1)Nc1ccc(S(=O)(=O)NC(=O)c2ccc(N3CCC([C@@H](O)c4ccccc4-c4ccc(Cl)cc4)CC3)cc2)cc1S(=O)(=O)C(F)(F)F [AZD4320] + C=CCn1c(=O)c2cnc(Nc3ccc(N4CCN(C)CC4)cc3)nc2n1-c1cccc(C(C)(C)O)n1 [AZD1775] (first compound max 1 µM, partner max 1 µM) | 0.187 | 1 | 0.324 | 0.904 | 0.665 | 0.956 | 1 | 0.292 | 0.733 | 0.878 | 0.845 | 0.76 | 0.972 | 0.402 | 0.204 | 0.92 | 0.739 | 1 | 1 | 0.523 |
| C[C@@H](c1ccc2nccn2c1)n1nnc2ncc(-c3cnn(C)c3)nc21 [Savolitinib] + CC1(C)CCC(CN2CCN(c3ccc(C(=O)NS(=O)(=O)c4ccc(NCC5CCOCC5)c([N+](=O)[O-])c4)c(Oc4cnc5[nH]ccc5c4)c3)CC2)=C(c2ccc(Cl)cc2)C1 [Venetoclax] (first compound max 1 µM, 7x7, partner max 1 µM) | 0.12 | 0.199 | 0.117 | 0.0972 | 0.106 | 0.245 | 0.895 | 0.125 | 0.204 | 0.182 | 0.153 | 0.138 | 0.621 | 0.261 | 0.121 | 0.143 | 0.127 | 0.142 | 1 | 0.236 |
| COc1nnc2ccc(N3CCC(c4ccc(OCCN5CCN(C)C(=O)[C@H]5C)cc4)CC3)nn12 [AZD5153] + Cc1c2c(nn1C)CSCc1cc(n(C)n1)CSc1cc(c3ccccc3c1)OCCCc1c(C(=O)O)n(C)c3c-2c(Cl)ccc13 [AZD5991] (first compound max 1 µM, 7x7, partner max 1 µM) | 0.475 | 0.982 | 0.527 | 0.337 | 0.997 | 0.987 | 1 | 0.719 | 0.652 | 0.998 | 0.691 | 0.744 | 1 | 1 | 0.376 | 0.808 | 1 | 1 | 1 | 0.958 |
| CCc1c2c(nc3ccc(O)cc13)-c1cc3c(c(=O)n1C2)COC(=O)[C@]3(O)CC [SN-38] + CN(C)CCCOc1ccc(-c2ccc3ncc4c(c3c2)n(C2CCOCC2)c(=O)n4C)cn1 [AZD0156] (first compound max 0.3 µM, 7x7, partner max 1 µM) | 0.87 | 1 | 0.624 | 0.532 | 0.324 | 0.72 | 0.998 | 0.838 | 0.429 | 0.246 | 0.925 | 0.786 | 1 | 0.869 | 0.688 | 0.246 | 0.231 | 1 | 1 | 0.803 |
| CC1(C)CCC(CN2CCN(c3ccc(C(=O)NS(=O)(=O)c4ccc(NCC5CCOCC5)c([N+](=O)[O-])c4)c(Oc4cnc5[nH]ccc5c4)c3)CC2)=C(c2ccc(Cl)cc2)C1 [Venetoclax] + C=CCn1c(=O)c2cnc(Nc3ccc(N4CCN(C)CC4)cc3)nc2n1-c1cccc(C(C)(C)O)n1 [AZD1775] (first compound max 1 µM, partner max 1 µM) | 0.244 | 0.746 | 0.311 | 0.747 | 0.589 | 0.776 | 1 | 0.305 | 0.688 | 0.907 | 0.734 | 0.647 | 0.835 | 0.659 | 0.29 | 0.546 | 0.711 | 0.986 | 1 | 0.711 |
| CC1(C)CCC(CN2CCN(c3ccc(C(=O)NS(=O)(=O)c4ccc(NCC5CCOCC5)c([N+](=O)[O-])c4)c(Oc4cnc5[nH]ccc5c4)c3)CC2)=C(c2ccc(Cl)cc2)C1 [Venetoclax] + C[C@@H]1COCCN1C2=NC(=NC(=C2)C3(CC3)[S@](=N)(=O)C)C4=C5C=CNC5=NC=C4 [AZD6738] (first compound max 1 µM, 7x7, partner max 10 µM) | 0.482 | 0.833 | 0.403 | 0.719 | 0.599 | 0.83 | 1 | 0.456 | 0.538 | 0.607 | 0.652 | 0.654 | 0.889 | 0.78 | 0.517 | 0.372 | 0.673 | 1 | 1 | 0.485 |
| CC(=O)c1c(C)c2cnc(Nc3ccc(N4CCNCC4)cn3)nc2n(C2CCCC2)c1=O [Palbociclib] + Cc1c2c(nn1C)CSCc1cc(n(C)n1)CSc1cc(c3ccccc3c1)OCCCc1c(C(=O)O)n(C)c3c-2c(Cl)ccc13 [AZD5991] (first compound max 10 µM, 7x7, partner max 1 µM) | 0.245 | 0.627 | 0.451 | 0.222 | 0.743 | 0.834 | 1 | 0.443 | 0.169 | 0.809 | 0.605 | 0.638 | 0.391 | 1 | 0.169 | 0.317 | 0.944 | 1 | 0.986 | 0.799 |
| COc1nnc2ccc(N3CCC(c4ccc(OCCN5CCN(C)C(=O)[C@H]5C)cc4)CC3)nn12 [AZD5153] + CCN(CCO)CCCOc1ccc2c(Nc3cc(CC(=O)Nc4cccc(F)c4)[nH]n3)ncnc2c1 [AZD2811] (first compound max 1 µM, 7x7, partner max 1 µM) | 0.5 | 0.907 | 0.542 | 0.409 | 0.649 | 0.935 | 1 | 0.74 | 0.571 | 0.832 | 0.668 | 0.691 | 0.944 | 0.939 | 0.39 | 0.605 | 0.628 | 0.999 | 1 | 0.582 |
| C=CCn1c(=O)c2cnc(Nc3ccc(N4CCN(C)CC4)cc3)nc2n1-c1cccc(C(C)(C)O)n1 [AZD1775] + O=C(c1cc(Cc2n[nH]c(=O)c3ccccc23)ccc1F)N1CCN(C(=O)C2CC2)CC1 [Olaparib] (first compound max 1 µM, partner max 10 µM) | 0.319 | 0.858 | 0.392 | 0.646 | 0.564 | 0.816 | 1 | 0.366 | 0.456 | 0.759 | 0.736 | 0.833 | 0.758 | 0.473 | 0.207 | 0.461 | 0.5 | 1 | 0.973 | 0.455 |
| COc1cccc(OCCCN)c1-c1cc(Nc2cnc(C#N)cn2)n[nH]1 [Prexasertib] + C=CCn1c(=O)c2cnc(Nc3ccc(N4CCN(C)CC4)cc3)nc2n1-c1cccc(C(C)(C)O)n1 [AZD1775] (first compound max 1 µM, partner max 1 µM) | 0.727 | 0.881 | 0.601 | 0.801 | 0.765 | 0.819 | 1 | 0.653 | 0.821 | 0.917 | 0.896 | 0.853 | 0.937 | 0.847 | 0.442 | 0.75 | 0.514 | 1 | 0.978 | 0.888 |
| Cc1cc2ncnn2cc1Nc1ncc2c(n1)n(C1CCOCC1)c(=O)n2C [AZD7648] + C=CCn1c(=O)c2cnc(Nc3ccc(N4CCN(C)CC4)cc3)nc2n1-c1cccc(C(C)(C)O)n1 [AZD1775] (first compound max 10 µM, partner max 1 µM) | 0.175 | 0.484 | 0.391 | 0.631 | 0.545 | 0.799 | 0.994 | 0.124 | 0.48 | 0.853 | 0.744 | 0.81 | 0.721 | 0.827 | 0.263 | 0.32 | 0.533 | 1 | 0.553 | 0.461 |
